Here are results for three compounds from patent US20230118497A1, “PYRAZOLE-CONTAINING POLYCYCLIC DERIVATIVE INHIBITOR, PREPARATION METHOD THEREFOR AND APPLICATION THEREOF” (Shanghai Hansoh Biomedical Co., Ltd., priority 2019, published 2023).

SMILES strings stand for the structures. Like-named read-outs stand apart in the source and are kept apart here.

One series relates to P2X3/P2X2/3. The settings on record: background; cited from earlier work.
For series [1] the following is noted: cited from earlier work.
For series [2] the following is noted: phase 2 RELIEF trial, patients with refractory chronic cough, any dose; cited from earlier work.
A further series deals with T1, 1321N1-hP2X3 receptor (Homo sapiens, UniProt P56373).
T1 construct: host or cells: 1321N1
T1 sequence (P56373 1-397): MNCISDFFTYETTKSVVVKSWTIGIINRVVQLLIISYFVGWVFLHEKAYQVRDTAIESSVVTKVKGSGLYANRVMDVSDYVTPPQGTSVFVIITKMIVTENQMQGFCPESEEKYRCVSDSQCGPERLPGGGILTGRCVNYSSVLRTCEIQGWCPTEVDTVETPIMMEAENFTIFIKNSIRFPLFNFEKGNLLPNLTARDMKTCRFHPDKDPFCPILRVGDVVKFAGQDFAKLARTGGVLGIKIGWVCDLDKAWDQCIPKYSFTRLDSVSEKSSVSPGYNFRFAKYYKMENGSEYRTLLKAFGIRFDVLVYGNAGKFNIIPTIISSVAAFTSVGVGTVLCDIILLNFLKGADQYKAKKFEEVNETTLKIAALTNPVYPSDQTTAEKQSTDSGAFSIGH
As to the kind of experiment: Calcium ion mobility (FLIPR) in cells stably expressing 1321N1-hP2X3 receptors. The settings on record: calcium signal, agonist at EC80. The class given is cell-based. The procedure:
Test Example 1. Determination of the Effect of the Compounds of the Present Invention on Calcium Ion Mobility in Cells Stably Expressing 1321N1-hP2X3 Receptors
To determine the inhibitory activity of the compounds on 1321N1-hP2X3 receptor.
Stably transfected cell line: 1321N1-hP2X3 (supplied by Shanghai ChemPartner Chemical Research Co., Ltd.).
(§1) Assay buffer: 1*HBSS+20 mM HEPES;
Cell culture medium: DMEM+10% FBS+75 µg/mL Hygromycin B+300 µg/mL G418;
(§2) Plating medium: DMEM+10% DPBS;
(§3) 0.5*Dye: 10*Dye stock+1.25 Probenecid+1*assay buffer+0.5 U/mL ATP hydrolytic enzyme;
(§4) 2. The cells were cultured to 70%-90% confluency in the cell culture medium at 37° C., 5% CO2. The medium was discarded, and the cells were added with 2 mL of Versene, and the cells were placed in an incubator at 37° C. for 2 to 5 min. The cells were collected by addition of 10 mL of plating medium and counted. The cells were seeded to the 384-well assay plate by addition of 50 μL solution (a density of 1×10^4 cells/well) to each well, and incubated for 16 to 24 hours (at least overnight).
(§5) 3. The medium was discarded, and 30 μL of 1× dye was added. The cells were incubated at 37° C. in the dark for 60 min.
(§6) 4. The compound powder was dissolved in DMSO to obtain a 20 mM stock solution. 180× compound with required concentration was formulated, and diluted in gradient for concentration points.
(§7) 5. Preparation of compound plate: 500 nL of 180× compound was transferred to the compound plate (source plate for FLIPR) using ECHO. 30 μL of assay buffer was added to each well, and the plate was shaken gently for 20 to 40 minutes.
(§8) 6. Determination: 15 μL of 3× compound was taken from each well and added to the cell plate. The samples were added by FLIPR instrument, and the calcium signals were detected. After 15 minutes, 22.5 μL of 3× agonist (EC80 concentration) was added to each well and the calcium signals were detected.
(§9) The calcium signal values were determined by FLIPR. The ratio of the 340/510 nm wavelength signals to 380/510 nm wavelength signals was used as the calculated results for each sampling time point in the experiment. The calculation of maximum minus minimum was derived from the ratio signal curve.
(§10) The percent inhibition rate and ten-point concentration data were fitted to the parametric nonlinear logistic equation by using GraphPad prism to calculate the IC50 values of the compounds.

Another series concerns the target T2, 1321N1-hP2X2/3 receptor (Homo sapiens, UniProt P56373+Q9UBL9).
T2 construct: host or cells: 1321N1
T2 sequence (P56373 1-397): T1 sequence (P56373 1-397)
T2 sequence (Q9UBL9 1-471): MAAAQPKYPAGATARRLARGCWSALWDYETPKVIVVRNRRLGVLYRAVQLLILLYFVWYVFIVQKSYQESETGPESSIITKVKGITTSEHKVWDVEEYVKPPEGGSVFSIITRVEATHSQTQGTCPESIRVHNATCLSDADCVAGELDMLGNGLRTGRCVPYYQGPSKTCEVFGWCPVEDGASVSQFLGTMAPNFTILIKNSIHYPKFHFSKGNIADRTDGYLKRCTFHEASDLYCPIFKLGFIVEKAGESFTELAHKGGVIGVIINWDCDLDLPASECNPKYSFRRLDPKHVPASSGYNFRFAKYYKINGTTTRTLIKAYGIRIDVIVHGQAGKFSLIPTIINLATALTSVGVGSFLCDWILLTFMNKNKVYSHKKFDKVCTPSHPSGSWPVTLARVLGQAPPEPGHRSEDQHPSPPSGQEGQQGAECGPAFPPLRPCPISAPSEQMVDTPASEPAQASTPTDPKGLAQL
As to the kind of experiment: Calcium ion mobility (FLIPR) in cells stably expressing 1321N1-hP2X2/3 receptors. The class given is cell-based. The settings on record: calcium signal, agonist at EC80. The procedure:
Test Example 2. Determination of the Effect of the Compounds of the Present Invention on Calcium Ion Mobility in Cells Stably Expressing 1321N1-hP2X2/3 Receptors
To determine the inhibitory activity of the compounds on 1321N1-hP2X2/3 receptor.
Stably transfected cell line: 1321N1-hP2X2/3 (supplied by Shanghai ChemPartner Chemical Research Co., Ltd.).
as §1
Cell culture medium: DMEM+10% FBS+75 μg/mL Hygromycin B+150 μg/mL G418;
as §2, §3, §4, §5, §6, §7, §8, §9, §10

A short description of series [3]: Pharmacokinetic assay in Balb/C mice. The series is classed as in vivo. Particulars: male, mouse, po, p.o. 5 mg/kg, plasma, 0.5% CMC-Na (1% Tween 80). As to the method: Test Example 3. Pharmacokinetic Assay in Balb/C Mice
Balb/C mice were used as test animals. The pharmacokinetic behavior of the compounds of Examples was studied in mouse body (plasma) by orally administration at a dose of 5 mg/kg.
Male Balb/C mice (6 mice per group), purchased from Shanghai Jiesijie Laboratory Animal Co., LTD, with Certificate No.: SCXK (Shanghai) 2013-0006 N0.311620400001794.
5 g of hydroxyethyl cellulose (HEC, CMC-Na, viscosity: 800-1200 Cps) was weighed and dissolved in 1000 mL of purified water, followed by addition of 10 g of Tween80.
After an overnight fast, male Balb/C mice were administered p.o. with the test compound at a dose of 5 mg/kg and a volume of 10 mL/kg.
0.04 mL of blood was taken from the orbit of the mouse before administration and at 0, 0.5, 1, 2, 4, 6, 8 and 24 hours after administration. The samples were stored in EDTA-K2 tubes, and centrifuged for 6 minutes at 4° C., 6000 rpm to separate the plasma. The plasma samples were stored at −80° C.
1) 160 μL of acetonitrile was added to 20 μL of the plasma sample for precipitation, and then the mixture was centrifuged at 3500×g for 5 to 20 minutes. 2) After the above process, 100 μL of the supernatant was taken to analyze the concentration of the test compound by LC/MS/MS.
2.7 Liquid Chromatography Analysis • Liquid chromatography condition: Shimadzu LC-20AD pump • Mass spectrometry condition: AB Sciex API 4000 mass spectrometer • Chromatographic column: phenomenex Gemiu 5 um C18 50×4.6 mm • Mobile phase: Eluent A was 0.1% formic acid in water, and Eluent B was acetonitrile • Flow rate: 0.8 mL/min • Elution time: 0-4.0 minutes the eluent is as follows:
The main parameters of pharmacokinetics were calculated by WinNonlin 8.2.

As usually defined, the IC50 is the midpoint of a concentration-inhibition curve. What is called Tmax is the time from dosing to the highest level.

With `CNC(=O)c1cc(F)c(-c2nc3cc(C)ccn3c2C[C@H]2CN(C(=O)OC)CCO2)c(F)c1` [BLU5937], the “selectivity to P2X3/P2X2/3” value in the series with P2X3/P2X2/3 was “high selectivity”. Moreover, the side effects entry in series [1] (phase I clinical trials) was “no side effects such as taste side effects appeared”. Also, the “primary endpoint of placebo-adjusted reduction in cough frequency” value in series [2] was “failed to achieve statistical significance”.
Consider `CC(C)(C)c1cc2n(CC(=O)Nc3ccc(F)cn3)c(=O)c3ccc(C(F)(F)F)nc3n2n1` [Example 30, 2-(2-(Tert-butyl)-5-oxo-8-(trifluoromethyl)pyrazolo[1,5-a]pyrido[3,2-e]pyrimidin-4(5H)-yl)-N-(5-fluoropyridin-2-yl)acetamide], for which the IC50 at 1321N1-hP2X3 receptor was 88.2 nM; at 1321N1-hP2X2/3 receptor, 14.5 µM. The AUC(0-t) in series [3] (read-out: Area under curve AUC0-t) was 10900 ng·h/mL. Moreover, in series [3] (read-out: Average residence time MRT0-∞), the MRT inf stood at 2.16 h. The half-life in series [3] (read-out: Half life t1/2 (converted)) is 81.6 min. Besides, the Tmax in series [3] (read-out: Peak time tmax) came to 30 min. Also, the Cmax in series [3] (read-out: Plasma concentration Cmax) stood at 3550 ng/mL.
Consider `COc1cc(C(C)C)c(Oc2cnc(N)nc2N)cc1S(N)(=O)=O` [MK-7264], for which the “selectivity to P2X3/P2X2/3” value in the series on P2X3/P2X2/3 is “low selectivity”. In addition, the side effects entry in series [1] (clinical stage) is given as “loss of taste”.
